{"source": "paper PMC9283751", "about": "(Clinical and Translational Science, 2022)", "key": {"[1]": {"experiment": "Calcineurin inhibitor trough levels in transplant recipients", "assay_type": "in vivo, human", "details": "mean [SD]"}, "[2]": {"details": "reference group of healthy subjects, abbreviated dosing schedule; cited from earlier work"}, "[3]": {"details": "with diltiazem; cited from earlier work"}, "[4]": {"assay_type": "in vivo, human"}, "[5]": {"details": "cited from earlier work"}, "[6]": {"assay_type": "in vivo, human", "remark": "listed apart in the source"}, "[7]": {"details": "cited from earlier work", "remark": "listed apart in the source"}, "[8]": {"details": "transplant recipients on cyclosporine compared to healthy subjects on apixaban alone"}, "[9]": {"details": "transplant recipients on cyclosporine, reference healthy subjects on apixaban + cyclosporine"}, "[10]": {"details": "transplant recipients on tacrolimus, reference healthy subjects on apixaban + tacrolimus"}}, "note": "Read-outs that look alike come from different tables or passages of the source.", "data": [{"smiles": "C=CC[C@@H]1/C=C(\\C)C[C@H](C)C[C@H](OC)[C@H]2O[C@@](O)(C(=O)C(=O)N3CCCC[C@H]3C(=O)O[C@H](/C(C)=C/[C@@H]3CC[C@@H](O)[C@H](OC)C3)[C@H](C)[C@@H](O)CC1=O)[C@H](C)C[C@@H]2OC", "note": "[tacrolimus]", "values": [{"measurement": "mean trough level", "setting": "[1]; after apixaban administration", "result": "8.0 [2.7] ng/ml"}, {"measurement": "mean trough level", "setting": "[1]; before apixaban administration (steady-state)", "result": "7.4 (1.5) ng/ml"}, {"measurement": "trough level", "setting": "[2]", "result": "3.8 (2.3) ng/ml"}]}, {"smiles": "COc1ccc(-n2nc(C(N)=O)c3c2C(=O)N(c2ccc(N4CCCCC4=O)cc2)CC3)cc1", "note": "[apixaban]", "values": [{"measurement": "increase in apixaban AUC", "setting": "[3]", "result": 1.4, "unit": "fold"}, {"measurement": "increase in apixaban Cmax", "setting": "[3]", "result": 1.3, "unit": "fold"}, {"measurement": "AUC(0-inf)", "setting": "[4]; human, plasma, po, 10 mg", "result": 5390, "unit": "ng·h/mL"}, {"measurement": "AUC(0-t)", "setting": "[4]; human, plasma, po, 10 mg", "result": 4990, "unit": "ng·h/mL"}, {"measurement": "GMR for apixaban AUC0-inf", "setting": "[4]; [8]", "result": 280, "unit": "%"}, {"measurement": "GMR for apixaban Cmax", "setting": "[4]; [8]", "result": 256, "unit": "%"}, {"measurement": "GMR for apixaban AUC0-inf", "setting": "[4]; [9]", "result": 229, "unit": "%"}, {"measurement": "GMR for apixaban Cmax", "setting": "[4]; [9]", "result": 179, "unit": "%"}, {"measurement": "solubility classification", "setting": "[5]", "result": "high solubility"}, {"measurement": "increase in plasma concentrations and total body exposures", "setting": "[6]; SOTRs on calcineurin inhibitors compared to healthy subjects on apixaban alone", "result": "2 to 3", "unit": "fold"}, {"measurement": "AUC(0-inf)", "setting": "[6]; human, plasma, oral, 10 mg", "result": 5210, "unit": "ng·h/mL"}, {"measurement": "Cmax", "setting": "[6]; human, plasma, oral, 10 mg", "result": 327, "unit": "ng/mL"}, {"measurement": "Tmax", "setting": "[6]; human, plasma, oral, 10 mg", "result": 1.4, "unit": "h"}, {"measurement": "AUC(0-inf)", "setting": "[6]; human, plasma, po, 10 mg", "result": 4310, "unit": "ng·h/mL"}, {"measurement": "AUC(0-t)", "setting": "[6]; human, plasma, po, 10 mg", "result": 4240, "unit": "ng·h/mL"}, {"measurement": "Cmax", "setting": "[6]; human, plasma, po, 10 mg", "result": 353, "unit": "ng/mL"}, {"measurement": "peak level", "setting": "[6]; one participant (kidney 1) on tacrolimus", "result": "> 500", "unit": "ng/mL"}, {"measurement": "mean AUCs higher than the healthy participants", "setting": "[6]; tacrolimus group, patients with optimal renal function", "result": 1.8, "unit": "fold"}, {"measurement": "Tmax", "setting": "[6]; tacrolimus transplant cohort, comparison group to patients that weighed <60 kg", "result": 2.6, "unit": "h"}, {"measurement": "mean Cmax", "setting": "[6]; tacrolimus transplant cohort, patients that weighed <60 kg", "result": 483, "unit": "ng/mL"}, {"measurement": "apixaban CL/F", "setting": "[6]; tacrolimus transplant cohort, patients with creatinine levels of greater than 133 μmol/L", "result": 1.9, "unit": "L/h"}, {"measurement": "GMR for apixaban AUC0-inf", "setting": "[6]; transplant recipients on tacrolimus compared to healthy subjects on apixaban alone", "result": 224, "unit": "%"}, {"measurement": "GMR for apixaban AUC0-inf", "setting": "[6]; [10]", "result": 285, "unit": "%"}, {"measurement": "GMR for apixaban AUC0-tlast", "setting": "[6]; [10]", "result": 309, "unit": "%"}, {"measurement": "apixaban dose removed by the kidneys", "setting": "[7]", "result": 27, "unit": "%"}]}]}
